Assay results published in patent publication US9770423B2, “Modulation sAPP, sAAPα and BDNF levels in individuals diagnosed with FXS and ASD” (Indiana University Research and Technology Corp., priority 2012, dated 2017).
“And” between values parts separate entries of the source, which are not always exact repeats. Identical values can stand only once.

Key:
[1] = test system: youth with Fragile X Syndrome (FXS); assay: 10-week open-label trial of acamprosate in youth with FXS: behavioral outcome measures; type: in vivo, human; conditions: for Aberrant Behavior Checklist-Social Avoidance (ABC-SA), end point mean ± SD: baseline 3.3 ± 2.6, p 0.01; for Clinical Global Impressions-Severity (CGI-S), end point mean ± SD: baseline 4.25 ± 0.45; for Clinical Global Impressions-Severity (CGI-S), end point mean ± SD / ADHD Rating Scale 4th Edition (ADHD-RS), end point mean ± SD: p <0.0001; for Aberrant Behavior Checklist-Social Withdrawal (ABC-SW), end point mean ± SD: baseline 8.8 ± 5.8, p 0.04 (Table 2), baseline 7.33 ± 5.2, p 0.014 (Table 5); for Aberrant Behavior Checklist-Hyperactivity (ABC-H), end point mean ± SD: baseline 16.8 ± 9.1, p 0.009; for ADHD Rating Scale 4th Edition (ADHD-RS), end point mean ± SD: baseline 23.6 ± 10.6; for Vineland Adaptive Behavior Scale (VABS) Communication Domain, end point mean ± SD: baseline 63.4 ± 10.1, p 0.03; for VABS Expressive Communication Subdomain, end point mean ± SD: baseline 69.8 ± 23.0, p 0.003; for Social Responsiveness Scale total score (SRS), end point mean ± SD: baseline 91.3 ± 27.4, p 0.005
From the text: The Institutional Review Board (IRB) at an academic medical center approved this study. Thirteen outpatient males and females aged 5 to 17 years with body weight 15 kg were recruited for this study. Written informed consent was obtained from each participant's legal guardian (parent for all children in this report), and subjects provided assent when able. Diagnosis of FXS was confirmed by Southern Blot and PCR results consistent with a greater than 200 CGG repeat expansion in the FMR1 gene with at least partial gene methylation. Subjects had to be free of other significant medical conditions. The concomitant use of psychotropic drugs that are not thought to impact glutamate neurotransmission were allowed so long as the patients experienced stable dosing at least 4 weeks prior to baseline. Subjects were required to have a mental age of greater than 18 months as determined by the Stanford-Binet 5th Edition. Additional inclusion criteria included a CGI-S(Guy 1976) score of at least 4 (“Moderately Ill”). Subjects with a Diagnostic and Statistical Manual of Mental Disorders, 4th Edition, Text Revision (DSM-IV-TR) diagnosis of a psychotic disorder, bipolar disorder, or substance use disorder were excluded from the study. Additionally, subjects with a positive urine pregnancy test, creatinine clearance of <30, active seizure disorder, or other significant medical condition were excluded.
A 10-week, prospective, open-label study design was chosen to gather pilot data for potential future larger-scale, double-blind, placebo-controlled studies in this population.
All subjects underwent a screening and baseline visit followed by follow-up visits every 2 weeks during the 10-week open-label trial period. At the end of weeks 1, 3, and 5 the investigators called the parent to assess drug tolerability and to make dose adjustments as indicated. All subjects received 333 mg/day of acamprosate during the first week of the study. The investigators then increased the dosage to a maximum of 1,998 mg/day (weight>50 kg) or 1,332 mg/day (weight<50 kg) over the first six weeks of the study, if optimal clinical response (CGI-I equal to 1 “very much improved”) had not occurred and intolerable adverse effects had not emerged. The dose maintenance phase lasted 4 weeks at the optimal dosage.
The CGI-S assessment was administered at screen and at baseline as part of the eligibility criteria described above. In this study, the rater scored the CGI-S in regard to severity of symptoms commonly noted in FXS including, but not limited to, inattention/hyperactivity, social impairment, communication impairment, repetitive behavior, irritability, and anxiety. The CGI-S is rated on a scale from 1 to 7 (1=normal, not ill at all; 2=borderline ill; 3=mildly ill; 4=moderately ill; 5=markedly ill; 6=severely ill; 7=among the most extremely ill patients with FXS). The Autism Diagnostic Observation Schedule (ADOS) (Lord, Rutter et al. 1989) was administered at baseline to characterize potential concomitant ASD diagnosis.
The primary outcome measure was the CGI-I. The CGI-I is a scale designed to assess global change from baseline. […] Treatment response was defined by a CGI-I score of 1 “very much improved” or 2 “much improved.” In this study, the CGI-I was utilized as a general global primary outcome measure given the uncertainty as to what specific symptoms/behaviors associated with FXS may be expected to improve or worsen with use of acamprosate. The CGI-I was administered at all visits after baseline.
Secondary outcome measures included all subscales of the ABC (Irritability, Social Withdrawal, Stereotypy, Hyperactivity, and Inappropriate Speech). The ABC is an informant-rated (primary caregiver) measure with confirmed reliability and validity with regard to factor structure, distribution of scores, and sensitivity to change in persons with developmental disability (Aman, Singh et al. 1985). […]

[2] = test system: sAPP; assay: plasma sAPP total by ELISA pre- and post-acamprosate; type: in vivo, human; conditions: individual patients 1-6, titled as diagnosed with FXS; after treatment
[3] = test system: extracellular dopamine levels in the nucleus accumbens; conditions: rats; dependent on glycine receptor activation; cited from earlier work
[4] = FXS, 10 weeks, listed as Acamprosate
[5] = baseline to endpoint, FXS, p=0.01
[6] = mean change from baseline to endpoint divided by SD at baseline, FXS

SMILES: CC(=O)NCCCS(=O)(=O)O.[Ca] [acamprosate, Calcium Acetylhomotaurine]
- treatment responders (CGI-I score of 1 or 2) ([1]; 12 youth with FXS, 10 weeks, mean final dose 1054 mg/day): 75%
- mean CGI-I at endpoint ([1]; 12 youth with FXS, scale 1-7): 1.9
- mean CGI-I values for the responders at week 10 ([1]; FXS trial, week 10): 1.92
- PPVT scores, change with treatment ([1]; FXS, 10 weeks): did not significantly change
- SRS Social Awareness and Autistic Mannerisms subscales, change with treatment ([1]; FXS, 10 weeks): Improvement was not noted
- other VABS domains, change with treatment ([1]; FXS, 10 weeks): No other changes with treatment were noted
- other subscales of the ABC and the CY-BOCS-PDD, change during treatment ([1]; FXS, 10 weeks): did not change significantly
- Aberrant Behavior Checklist-Social Avoidance (ABC-SA), end point mean ± SD ([1]; FXS, 10 weeks): 1.6
- Aberrant Behavior Checklist-Social Avoidance (ABC-SA), end point mean ± SD [1, 4]: 1.6 ± 2.7
- Clinical Global Impressions-Severity (CGI-S), end point mean ± SD ([1]; FXS, 10 weeks): 3.33
- Clinical Global Impressions-Severity (CGI-S), end point mean ± SD [1, 4]: 3.33 ± 0.5 and 3.33 ± 0.49
- Aberrant Behavior Checklist-Inappropriate Speech (ABC-IS), end point mean ± SD ([1]; FXS, 10 weeks, baseline 5.2 ± 3.5, p 0.61): 4.8 ± 3.4
- Aberrant Behavior Checklist-Stereotypy (ABC-S), end point mean ± SD ([1]; FXS, 10 weeks, baseline 6.8 ± 6.8, p 0.09): 6 ± 6.3
- Aberrant Behavior Checklist-Social Withdrawal (ABC-SW), end point mean ± SD ([1]; FXS, 10 weeks): 4.1
- Aberrant Behavior Checklist-Social Withdrawal (ABC-SW), end point mean ± SD [1, 4]: 4.1 ± 6.5
- Aberrant Behavior Checklist-Irritability (ABC-I), end point mean ± SD ([1]; FXS, 10 weeks, baseline 9.9 ± 7.8, p 0.11): 7.0 ± 8.9
- Children's Yale-Brown Obsessive Compulsive Scale Modified for PDD (CY-BOCS-PDD), end point mean ± SD ([1]; FXS, 10 weeks, baseline 11.1 ± 2.6, p 0.15): 9.8 ± 4.1
- Aberrant Behavior Checklist-Hyperactivity (ABC-H), end point mean ± SD ([1]; FXS, 10 weeks): 11.0
- Aberrant Behavior Checklist-Hyperactivity (ABC-H), end point mean ± SD [1, 4]: 11.0 ± 8.6
- ADHD Rating Scale 4th Edition (ADHD-RS), end point mean ± SD ([1]; FXS, 10 weeks): 16.7
- ADHD Rating Scale 4th Edition (ADHD-RS), end point mean ± SD [1, 4]: 16.7 ± 8
- Vineland Adaptive Behavior Scale (VABS) Communication Domain, end point mean ± SD ([1]; FXS, 10 weeks): 66.6
- Vineland Adaptive Behavior Scale (VABS) Communication Domain, end point mean ± SD [1, 4]: 66.6 ± 11.2
- VABS Expressive Communication Subdomain, end point mean ± SD ([1]; FXS, 10 weeks): 78.9
- VABS Expressive Communication Subdomain, end point mean ± SD [1, 4]: 78.9 ± 21.2
- Peabody Picture Vocabulary Test (PPVT), end point mean ± SD ([1]; FXS, 10 weeks, baseline 85.2 ± 32.0, p 0.53): 83.3 ± 32
- Social Responsiveness Scale total score (SRS), end point mean ± SD ([1]; FXS, 10 weeks): 76.4
- Social Responsiveness Scale total score (SRS), end point mean ± SD [1, 4]: 76.4 ± 26.8 and 76.42 ± 26.8
- decline of mean ABC-H score ([1]; baseline to endpoint, FXS): 35%
- decline of mean ABC-SA score ([1]; baseline to endpoint, FXS): 51%
- decline of mean ABC-SW score ([1]; baseline to endpoint, FXS): 53%
- decline of mean ADHD-RS score ([1]; baseline to endpoint, FXS): 29%
- decline of mean total SRS raw score ([1]; baseline to endpoint, FXS): 16%
- improvement of mean VABS Communication Domain standard score ([1]; baseline to endpoint, FXS): 5%
- improvement of mean VABS Expressive Communication score ([1]; baseline to endpoint, FXS): 13%
- decline of SRS Social Motivation subscale ([1]; baseline to endpoint, FXS, p=0.003): 28%
- decline of SRS Social Cognition subscale [1, 5]: 19%
- decline of SRS Social Communication subscale [1, 5]: 14%
- Effect Size, ABC-H [1, 6]: 0.64
- Effect Size, ABC-SA [1, 6]: 0.64
- Effect Size, ABC-SW [1, 6]: 0.81
- Effect Size, ADHD-RS [1, 6]: 0.65
- Effect Size, CGI-S [1, 6]: 2.0
- Effect Size, SRS total score [1, 6]: 0.54
- Effect Size, VABS Communication Domain [1, 6]: 0.3
- Effect Size, VABS Expressive Communication Subdomain [1, 6]: 0.4
- Effect Size, VABS Communication Domain ([1]; mean change from baseline to endpoint divided by SD at baseline, FXS, listed as Acamprosate): 0.32
- treatment responders, number of subjects ([1]; of 12 youth with FXS): 9
- sAPP (total)-CP, Week 12 [2]: 5.561 ng/mL and 25.16 ng/mL and 12.84 ng/mL and 8.077 ng/mL and 56.8 ng/mL and 7.547 ng/mL
- extracellular dopamine levels in the nucleus accumbens [3]: elevates extracellular dopamine levels
